Results taken from patent US12180226B2, “Spirotricycle RIPK1 inhibitors and methods of uses thereof” (Merck Sharp & Dohme LLC, priority 2021, dated 2024).
Where a name gives a salt, the structure may show the parent alone.

What follows are molecules tested against RIPK1 (recombinant GST-RIPK1 kinase domain, residues 1-327) (Homo sapiens (Human), UniProt Q13546) (assay: RIPK1-ADP-Glo Enzymatic Assay). Conditions: ADP-Glo; 25 nM GST-RIPK1, 300 μM ATP; assay lower limit ~25 nM; read-out: RIPK1 V0 Ec50.
Assay type: biochemical
Procedure, shortened: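 Inhibition of ADP formation was measured after compound and enzyme (25 nM) were pre-incubated for 30 minutes at ambient temperature and the kinase reaction ran for 150 minutes at 300 μM ATP with dephosphorylated MBP substrate. EC50 values come from ten-point curves fitted non-linearly.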

Chain of RIPK1 (recombinant GST-RIPK1 kinase domain, residues 1-327) (Q13546 1-327): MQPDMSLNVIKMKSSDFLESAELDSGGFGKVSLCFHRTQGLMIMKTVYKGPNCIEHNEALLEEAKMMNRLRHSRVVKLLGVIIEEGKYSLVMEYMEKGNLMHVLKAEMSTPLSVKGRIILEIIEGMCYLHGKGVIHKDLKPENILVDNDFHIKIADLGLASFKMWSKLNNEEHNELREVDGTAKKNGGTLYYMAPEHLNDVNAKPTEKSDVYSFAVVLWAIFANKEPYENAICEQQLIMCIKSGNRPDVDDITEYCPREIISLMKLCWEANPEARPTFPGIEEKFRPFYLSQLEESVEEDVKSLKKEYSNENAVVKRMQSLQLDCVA

SMILES	EC50 [nM]
O=C(c1cc(F)ccc1F)N1CC2(C1)O[C@@H]1CC[C@@H](c3ccccc3F)N1C2=O [Example 1.18, (5′S,7a′R)-1-(2,5-difluorobenzoyl)-5′-(2-fluorophenyl)tetrahydro-3′H-spiro[azetidine-3,2′-pyrrolo[2,1-b]oxazol]-3′-one]	39
Cn1cc([C@@H]2CC[C@H]3OC4(CCN(c5ccc(C#N)c6ncnn56)CC4)C(=O)N32)cn1 [Example 20.1, 5-((5′S,7a′R)-5′-(1-Methyl-1H-pyrazol-4-yl)-3′-oxotetrahydro-3′H-spiro[piperidine-4,2′-pyrrolo[2,1-b]oxazol]-1-yl)-[1,2,4]triazolo[1,5-a]pyridine-8-carbonitrile]	45.4
O=C1N2[C@@H](CC[C@H]2c2cc(F)cc(F)c2)OC12CCN(c1cccc3nccn13)CC2 [Example 13.5, (5′S,7a′R)-5′-(3,5-difluorophenyl)-1-(imidazo[1,2-a]pyridin-5-yl)tetrahydro-3′H-spiro[piperidine-4,2′-pyrrolo[2,1-b]oxazol]-3′-one, TFA salt]	98.4
O=C1N2C(=NC13CCN(c1cc(F)ccn1)CC3)CC[C@H]2c1cc(F)cc(F)c1 [Example 11.1]	885
COc1cc(C(=O)N2CCC3(CC2)O[C@@H]2CC[C@@H](c4cccc(F)c4)N2C3=O)ccc1F [Example 6.120, (5′S,7a′R)-1-(4-fluoro-3-methoxybenzene-1-carbonyl)-5′-(3-fluoro-phenyl)tetrahydro-3′H-spiro[piperidine-4,2′-pyrrolo[2,1-b][1,3]oxazol]-3′-one]	< 25
N#Cc1cncc([C@@H]2CC[C@H]3SC4(CCN(C(=O)c5ccccc5)CC4)C(=O)N32)c1 [Example 7.4, 5-[(5′S,7a′R)-1-(benzenecarbonyl)-3′-oxotetrahydro-3′H-spiro[piperidine-4,2′-pyrrolo[2,1-b][1,3]thiazol]-5′-yl]pyridine-3-carbonitrile]	108
O=C(c1cnc2ccccc2n1)N1CCC2(CC1)O[C@@H]1CC[C@@H](c3cc(F)cc(F)c3)N1C2=O [Example 6.73, (5′S,7a′R)-5′-(3,5-difluorophenyl)-1-(quinoxaline-2-carbon-yl)tetrahydro-3′H-spiro[piperidine-4,2′-pyrrolo[2,1-b][1,3]-oxazol]-3′-one]	48.6
N#Cc1cncc([C@@H]2CC[C@H]3SC4(CCN(c5ccnc6c(F)cnn56)CC4)C(=O)N32)c1 [Example 4.112, 5-[(5′S,7a′R)-1-(3-fluoropyrazolo[1,5-a]pyrimidin-7-yl)-3′-oxotetrahydro-3′H-spiro[piperidine-4,2′-pyrrolo[2,1-b] [1,3]thiazol]-5′-yl]pyridine-3-carbonitrile]	< 25
CC1CN(c2cc(C#N)ncn2)CCC12O[C@@H]1CC[C@@H](c3ccccc3)N1C2=O (stereo partly drawn) [Example 4.237, 6-[(4R,5′S,7a′R)-3-methyl-3′-oxo-5′-phenyltetrahydro-1H,3′H-spiro[piperidine-4,2′-pyrrolo[2,1-b] [1,3]oxazol]-1-yl]pyrimidine-4-carbonitrile]	< 25
O=C1N2[C@@H](CC[C@H]2c2cc(F)cc(F)c2)OC12CCN(c1cc(-c3ccccc3)ncn1)CC2 [Example 4.13, (5′S,7a′R)-5′-(3,5-difluorophenyl)-1-(6-phenylpyrimidin-4-yl)tetrahydro-3′H-spiro[piperidine-4,2′-pyrrolo[2,1-b] [1,3]oxazol]-3′-one]	< 25
O=C(c1nc2ccncc2s1)N1CCC2(CC1)O[C@@H]1CC[C@@H](c3cc(F)cc(F)c3)N1C2=O [Example 6.23, (5′S,7a′R)-5′-(3,5-difluorophenyl)-1-([1,3]thiazolo[5,4-c]-pyridine-2-carbonyl) tetrahydro-3′H-spiro [piperidine-4,2′-pyrrolo[2,1-b][1,3]oxazol]-3′-one]	96.4
COc1ccc(C(=O)N2CCC3(CC2)O[C@@H]2CC[C@@H](c4cc(F)cc(F)c4)N2C3=O)c(F)c1 [Example 5.58, (5′S,7a′R)-5′-(3,5-difluoro-phenyl)-1-(2-fluoro-4-methoxybenzoyl)tetra-hydro-3′H-spiro[piperidine-4,2′-pyrrolo[2,1-b]oxazol]-3'-one]	24.8
Cc1nc(N2CCC3(CC2)O[C@@H]2CC[C@@H](c4cc(F)cc(F)c4)N2C3=O)ccc1C#N [Example 4.42, 6-[(5′S,7a′R)-5′-(3,5-difluorophenyl)-3′-oxotetrahydro-1H,3′H-spiro[piperidine-4,2′-pyrrolo[2,1-b] [1,3]oxazol]-1-yl]-2-methylpyridine-3-carbonitrile]	< 25
N#Cc1cnc(N2CCC3(CC2)O[C@@H]2CC[C@@H](c4cccc(F)c4)N2C3=O)c(F)c1 [Example 4.50, 5-fluoro-6-[(5′S,7a′R)-5′-(3-fluorophenyl)-3′-oxotetrahydro-1H,3′H-spiro[piperidine-4,2′-pyrrolo[2,1-b] [1,3]oxazol]-1-yl]pyridine-3-carbonitrile]	30.7
O=C1N2[C@@H](CC[C@H]2c2ccccc2)OC12CCN(c1nc3ccccc3o1)CC2 [Example 4.154, (5′S,7a′R)-1-(1,3-benzoxazol-2-yl)-5′-phenyltetrahydro-3′H-spiro[piperidine-4,2′-pyrrolo[2,1-b] [1,3]oxazol]-3′-one]	35.7
N#Cc1cnc(N2CCC3(CC2)O[C@@H]2CC[C@@H](c4cc(F)cc(F)c4)N2C3=O)nc1 [Example 4.76, 2-[(5′S,7a′R)-5′-(3,5-difluorophenyl)-3′-oxotetrahydro-1H,3′H-spiro[piperidine-4,2′-pyrrolo[2,1-b] [1,3]oxazol]-1-yl]pyrimidine-5-carbonitrile]	38.2

Now from value to molecule:

EC50 [nM]	SMILES
451	O=C(c1nnc(-c2ccccn2)s1)N1CCC2(CC1)O[C@@H]1CC[C@@H](c3cc(F)cc(F)c3)N1C2=O [Example 6.45, (5′S,7a′R)-5′-(3,5-difluorophenyl)-1-[5-(pyridin-2-yl)-1,3,4-thiadiazole-2-carbon-yl]tetrahydro-3′H-spiro[piperidine-4,2′-pyrrolo[2,1-b][1,3]oxazol]-3′-one]
56.5	CC1CN(c2cc(C#N)ncn2)CCC12O[C@@H]1CC[C@@H](c3ccccc3)N1C2=O (stereo partly drawn) [Example 4.234, 6-[(4R,5′S,7a′R)-3-methyl-3′-oxo-5′-phenyltetrahydro-1H,3′H-spiro[piperidine-4,2′-pyrrolo[2,1-b] [1,3]oxazol]-1-yl]pyrimidine-4-carbonitrile]
< 25	O=C1N2[C@@H](CC[C@H]2c2ccccc2)OC12CCN(c1ccc(C(F)F)c3ncnn13)CC2 [Example 4.269, (5′S,7a′R)-1-[8-(difluoromethyl)[1,2,4]triazolo[1,5-a]pyridin-5-yl]-5′-phenyltetrahydro-3′H-spiro[piperidine-4,2′-pyrrolo[2,1-b] [1,3]oxazol]-3′-one]
40.6	O=C(c1cc(F)ccn1)N1CCC2(CC1)O[C@@H]1CC[C@@H](c3cc(F)cc(F)c3)N1C2=O [Example 6.92, (5′S,7a′R)-5′-(3,5-difluorophenyl)-1-(4-fluoropyridine-2-carbonyl)tetrahydro-3′H-spiro[piperidine-4,2′-pyrrolo[2,1-b] [1,3]oxazol]-3′-one]
29.4	Cc1ncc([C@@H]2CC[C@H]3OC4(CCN(c5ccnc6ccnn56)CC4)C(=O)N32)cc1F [Example 4.89, (5′S,7a′R)-5′-(5-fluoro-6-methylpyridin-3-yl)-1-(pyrazolo[1,5-a]pyrimidin-7-yl)tetrahydro-3′H-spiro[piperidine-4,2′-pyrrolo[2,1-b]oxazol]-3′-one]
25.6	O=C1N2[C@@H](CC[C@H]2c2cnccn2)OC12CCN(c1ccnc3c(F)cnn13)CC2 [Example 4.140, (5′S,7a′R)-1-(3-fluoropyrazolo[1,5-a]pyrimidin-7-yl)-5′-(pyrazin-2-yl)tetrahydro-3′H-spiro[piperidine-4,2′-pyrrolo[2,1-b] [1,3]oxazol]-3′-one]
< 25	O=C1N2[C@@H](CC[C@H]2c2ccccc2)OC12CCN(c1ccc(Br)n3ncnc13)CC2 [Example 4.216, (5′S,7a′R)-1-(5-bromo [1,2,4]triazolo[1,5-a]pyridin-8-yl)-5′-phenyltetrahydro-3′H-spiro[piperidine-4,2′-pyrrolo[2,1-b] [1,3]oxazol]-3′-one]
40.3	O=C1N2[C@@H](CC[C@H]2c2ccccc2)OC12CCN(c1ncc(-c3cscn3)cn1)CC2 [Example 21.13, (5′S,7a′R)-5′-phenyl-1-[5-(1,3-thiazol-4-yl)pyrimidin-2-yl]tetrahydro-3′H-spiro[piperidine-4,2′-pyrrolo[2,1-b][1,3]oxazol]-3′-one]
< 25	O=C(c1ccc2nscc2c1)N1CCC2(CC1)O[C@@H]1CC[C@@H](c3cc(F)cc(F)c3)N1C2=O [Example 6.42, (5′S,7a′R)-1-(2,1-benzothiazole-5-carbonyl)-5′-(3,5-difluorophenyl)tetra-hydro-3′H-spiro [piperidine-4,2′-pyrrolo[2,1-b][1,3]oxazol]-3′-one]
< 25	CCc1ccc(N2CCC3(CC2)O[C@@H]2CC[C@@H](c4ccccc4)N2C3=O)n2ncnc12 [Example 4.221, (5′S,7a′R)-1-(8-ethyl[1,2,4]triazolo[1,5-a]pyridin-5-yl)-5′-phenyltetrahydro-3′H-spiro[piperidine-4,2′-pyrrolo[2,1-b] [1,3]oxazol]-3′-one]
33.9	N#Cc1cc(N2CCC3(CC2)O[C@@H]2CC[C@@H](c4ccccc4F)N2C3=O)ncn1 [Example 4.104, 6-((5′S,7a′R)-5′-(2-fluorophenyl)-3′-oxotetrahydro-3′H-spiro[piperidine-4,2′-pyrrolo[2,1-b]oxazol]-1-yl)pyrimidine-4-carbonitrile]
132	O=C1N2[C@@H](CC[C@H]2c2ccccc2)OC12CCN(c1csc(C(F)F)c1)CC2 [Example 11.26, (5′S,7a′R)-1-[5-(difluoromethyl)thiophen-3-yl]-5′-phenyltetrahydro-3′H-spiro[piperidine-4,2′-pyrrolo[2,1-b][1,3]oxazol]-3′-one]
